Test results taken from PubChem BioAssay AID2060890 (Molecular Pharmacology Branch, DTP, NCI, 2025).

Test system: LG0703-F948-PDC complex spheroid viability
Experiment: Anticancer human tumor LG0703-F948-PDC patient-derived lung adenocarcinoma cell line growth inhibition [RAS]
Conditions: for IC50: curve of first compound; for viability, T/C: stronger effect = lower value
Procedure, shortened: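 Agents were tested in combination matrices in half-log decrements from a top concentration at or near clinical Cmax (10 microM if undetermined). Targets were multi-cell spheroids of tumour lines plus HUVEC and MSC stromal cells.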
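Note: spheroids exposed to agents for 7 days.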
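Throughout, for viability, T/C: 100% = DMSO vehicle wells.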

## CCC(CC)c1cc(NC2CCC(N)C2)n2nccc2n1 (centres undefined) + CCn1c(-c2cc(N3CCN(C)CC3)cnc2C(C)OC)c2c3cc(ccc31)-c1csc(n1)CC(NC(=O)C1CC1C)C(=O)N1CCCC(N1)C(=O)OCC(C)(C)C2
Second compound 0.000949 µM
  IC50: 0.427 µM
Second compound 0.003 µM
  IC50: < 0.0316 µM
Second compound 0.00949 µM
  IC50: < 0.0316 µM
Second compound 0.03 µM
  IC50: < 0.0316 µM
Second compound 0.0949 µM
  IC50: < 0.0316 µM
Second compound 0.3 µM
  IC50: < 0.0316 µM
Second compound 0.000949 µM, first compound 0.0316 µM
  viability, T/C: 72.3%
Second compound 0.000949 µM, first compound 0.1 µM
  viability, T/C: 59.8%
Second compound 0.000949 µM, first compound 0.316 µM
  viability, T/C: 55.2%
Second compound 0.000949 µM, first compound 1 µM
  viability, T/C: 33.9%
Second compound 0.000949 µM, first compound 3.16 µM
  viability, T/C: 0.67%
Second compound 0.000949 µM, first compound 10 µM
  viability, T/C: 0.23%
Second compound 0.003 µM, first compound 0.0316 µM
  viability, T/C: 44.1%
Second compound 0.003 µM, first compound 0.1 µM
  viability, T/C: 40.2%
Second compound 0.003 µM, first compound 0.316 µM
  viability, T/C: 36.8%
Second compound 0.003 µM, first compound 1 µM
  viability, T/C: 25.3%
Second compound 0.003 µM, first compound 3.16 µM
  viability, T/C: 0.46%
Second compound 0.003 µM, first compound 10 µM
  viability, T/C: 0.16%
Second compound 0.00949 µM, first compound 0.0316 µM
  viability, T/C: 24.1%
Second compound 0.00949 µM, first compound 0.1 µM
  viability, T/C: 20.3%
Second compound 0.00949 µM, first compound 0.316 µM
  viability, T/C: 17.9%
Second compound 0.00949 µM, first compound 1 µM
  viability, T/C: 9.58%
Second compound 0.00949 µM, first compound 3.16 µM
  viability, T/C: 0.42%
Second compound 0.00949 µM, first compound 10 µM
  viability, T/C: 0.27%
Second compound 0.03 µM, first compound 0.0316 µM
  viability, T/C: 13%
Second compound 0.03 µM, first compound 0.1 µM
  viability, T/C: 13.9%
Second compound 0.03 µM, first compound 0.316 µM
  viability, T/C: 13.1%
Second compound 0.03 µM, first compound 1 µM
  viability, T/C: 6.07%
Second compound 0.03 µM, first compound 3.16 µM
  viability, T/C: 0.25%
Second compound 0.03 µM, first compound 10 µM
  viability, T/C: 0.24%
Second compound 0.0949 µM, first compound 0.0316 µM
  viability, T/C: 9.5%
Second compound 0.0949 µM, first compound 0.1 µM
  viability, T/C: 10.2%
Second compound 0.0949 µM, first compound 0.316 µM
  viability, T/C: 9.16%
Second compound 0.0949 µM, first compound 1 µM
  viability, T/C: 5.84%
Second compound 0.0949 µM, first compound 3.16 µM
  viability, T/C: 0.57%
Second compound 0.0949 µM, first compound 10 µM
  viability, T/C: 0.11%
Second compound 0.3 µM, first compound 0.0316 µM
  viability, T/C: 8.46%
Second compound 0.3 µM, first compound 0.1 µM
  viability, T/C: 9.75%
Second compound 0.3 µM, first compound 0.316 µM
  viability, T/C: 8.9%
Second compound 0.3 µM, first compound 1 µM
  viability, T/C: 4.9%
Second compound 0.3 µM, first compound 3.16 µM
  viability, T/C: 0.23%
Second compound 0.3 µM, first compound 10 µM
  viability, T/C: 0.41%

## CC(C)NCC(C(=O)N1CCN(c2ncnc3c2C(C)CC3O)CC1)c1ccc(Cl)cc1 (centres undefined) + C#Cc1c(F)ccc2cc(O)cc(-c3ncc4c(N5CC6CCC(C5)N6)nc(OCC56CCCN5CC(F)C6)nc4c3F)c12
Second compound 0.0316 µM
  IC50: 0.601 µM
Second compound 0.1 µM
  IC50: 0.699 µM
Second compound 0.316 µM
  IC50: 0.238 µM
Second compound 1 µM
  IC50: 0.257 µM
Second compound 3.16 µM
  IC50: 0.0594 µM
Second compound 10 µM
  IC50: < 0.0316 µM
Second compound 0.0316 µM, first compound 0.0316 µM
  viability, T/C: 90%
Second compound 0.0316 µM, first compound 0.1 µM
  viability, T/C: 67.3%
Second compound 0.0316 µM, first compound 0.316 µM
  viability, T/C: 59.7%
Second compound 0.0316 µM, first compound 1 µM
  viability, T/C: 46.4%
Second compound 0.0316 µM, first compound 3.16 µM
  viability, T/C: 29.8%
Second compound 0.0316 µM, first compound 10 µM
  viability, T/C: 26.1%
Second compound 0.1 µM, first compound 0.0316 µM
  viability, T/C: 86.1%
Second compound 0.1 µM, first compound 0.1 µM
  viability, T/C: 68.2%
Second compound 0.1 µM, first compound 0.316 µM
  viability, T/C: 64.5%
Second compound 0.1 µM, first compound 1 µM
  viability, T/C: 40.5%
Second compound 0.1 µM, first compound 3.16 µM
  viability, T/C: 37.5%
Second compound 0.1 µM, first compound 10 µM
  viability, T/C: 22.9%
Second compound 0.316 µM, first compound 0.0316 µM
  viability, T/C: 82.5%
Second compound 0.316 µM, first compound 0.1 µM
  viability, T/C: 60%
Second compound 0.316 µM, first compound 0.316 µM
  viability, T/C: 44.5%
Second compound 0.316 µM, first compound 1 µM
  viability, T/C: 35%
Second compound 0.316 µM, first compound 3.16 µM
  viability, T/C: 31.1%
Second compound 0.316 µM, first compound 10 µM
  viability, T/C: 15.8%
Second compound 1 µM, first compound 0.0316 µM
  viability, T/C: 68.6%
Second compound 1 µM, first compound 0.1 µM
  viability, T/C: 63.6%
Second compound 1 µM, first compound 0.316 µM
  viability, T/C: 47.5%
Second compound 1 µM, first compound 1 µM
  viability, T/C: 25.6%
Second compound 1 µM, first compound 3.16 µM
  viability, T/C: 20.4%
Second compound 1 µM, first compound 10 µM
  viability, T/C: 10.2%
Second compound 3.16 µM, first compound 0.0316 µM
  viability, T/C: 57.6%
Second compound 3.16 µM, first compound 0.1 µM
  viability, T/C: 43.4%
Second compound 3.16 µM, first compound 0.316 µM
  viability, T/C: 32.9%
Second compound 3.16 µM, first compound 1 µM
  viability, T/C: 17.8%
Second compound 3.16 µM, first compound 3.16 µM
  viability, T/C: 11.7%
Second compound 3.16 µM, first compound 10 µM
  viability, T/C: 7.15%
Second compound 10 µM, first compound 0.0316 µM
  viability, T/C: 34%
Second compound 10 µM, first compound 0.1 µM
  viability, T/C: 33.9%
Second compound 10 µM, first compound 0.316 µM
  viability, T/C: 17.9%
Second compound 10 µM, first compound 1 µM
  viability, T/C: 8.97%
Second compound 10 µM, first compound 3.16 µM
  viability, T/C: 3.2%
Second compound 10 µM, first compound 10 µM
  viability, T/C: 0.42%
